Laboratory results reported in patent publication US9770023B2, “Active compound combinations comprising phenylamidine compounds and further fungicides” (BAYER CROPSCIENCE AKTIENGESELLSCHAFT, priority 2014, dated 2017).

How the values were obtained:
[1] = tested on: Phakopsora pachyrhizi; assay: in vivo preventive test on Phakopsora test (soybeans)
Description: To produce a suitable preparation of active compound, 1 part by weight of active compound is mixed with the stated amounts of solvent and emulsifier, and the concentrate is diluted with water to the desired concentration. To test for preventive activity, young plants are sprayed with the preparation of active compound at the stated rate of application. After the spray coating has dried on, the plants are inoculated with an aqueous spore suspension of the causal agent of soybean rust (Phakopsora pachyrhizi) and stay for 24 h without light in an incubation cabinet at approximately 24° C. and a relative atmospheric humidity of 95%. The plants remain in the incubation cabinet at approximately 24° C. and a relative atmospheric humidity of approximately 80% and a day/night interval of 12 h.
The test is evaluated 7 days after the inoculation. 0% means an efficacy which corresponds to that of the untreated control, while an efficacy of 100% means that no disease is observed.

[2] = tested on: Puccinia triticina; assay: in vivo preventive Puccinia triticina test (wheat); settings: Table E1, 8 days after inoculation
Description: To produce a suitable preparation of active compound, 1 part by weight of active compound or active compound combination is mixed with the stated amounts of solvent and emulsifier, and the concentrate is diluted with water to the desired concentration.
To test for preventive activity, young plants are sprayed with the preparation of active compound or active compound combination at the stated rate of application. After the spray coating has been dried, the plants are sprayed with a spore suspension of Puccinia triticina. The plants remain for 48 hours in an incubation cabinet at approximately 20° C. and a relative atmospheric humidity of approximately 100%. The plants are placed in the greenhouse at a temperature of approximately 20° C. and a relative atmospheric humidity of approximately 80%.
The test is evaluated 8 days after the inoculation. 0% means an efficacy which corresponds to that of the untreated control, while an efficacy of 100% means that no disease is observed.

[3] = tested on: Pyrenophora teres; assay: in vivo preventive Pyrenophora teres test (barley); settings: Table F1, 8 days after inoculation
Description: (§1) [table] To produce a suitable preparation of active compound, 1 part by weight of active compound or active compound combination is mixed with the stated amounts of solvent and emulsifier, and the concentrate is diluted with water to the desired concentration. To test for preventive activity, young plants are sprayed with the preparation of active compound or active compound combination at the stated rate of application. After the spray coating has been dried, the plants are sprayed with a spore suspension of Pyrenophora teres. The plants remain for 48 hours in an incubation cabinet at approximately 20° C. and a relative atmospheric humidity of approximately 100%. The plants are placed in the greenhouse at a temperature of approximately 20° C. and a relative atmospheric humidity of approximately 80%. The test is evaluated 8 days after the inoculation. 0% means an efficacy which corresponds to that of the untreated control, while an efficacy of 100% means that no disease is observed.

[4] = tested on: Blumeria graminis f.sp. hordei; assay: in vivo preventive Blumeria test (barley)
Description: [table] To produce a suitable preparation of active compound, 1 part by weight of active compound or active compound combination is mixed with the stated amounts of solvent and emulsifier, and the concentrate is diluted with water to the desired concentration. To test for preventive activity, young plants are sprayed with the preparation of active compound or active compound combination at the stated rate of application. After the spray coating has been dried, the plants are dusted with spores of Blumeria graminis f.sp. hordei. The plants are placed in the greenhouse at a temperature of approximately 18° C. and a relative atmospheric humidity of approximately 80% to promote the development of mildew pustules. The test is evaluated 7 days after the inoculation. 0% means an efficacy which corresponds to that of the untreated control, while an efficacy of 100% means that no disease is observed.

[5] = tested on: Septoria tritici; assay: in vivo preventive Septoria tritici test (wheat)
Description: as §1, with “suspension of Septoria tritici. The plants” for “suspension of Pyrenophora teres. The plants”, “of approximately 100% and afterwards for 60 hours at approximately 15° C. in a translucent incubation cabinet at a relative atmospheric humidity of approximately 100%. The” for “of approximately 100%. The”, “of approximately 15° C. and” for “of approximately 20° C. and”, “is evaluated 21 days after” for “is evaluated 8 days after”

[6] = tested on: Alternaria solani; assay: in vivo preventive test on Alternaria test (tomatoes)
Description: [table] To produce a suitable preparation of active compound, 1 part by weight of active compound is mixed with the stated amounts of solvent and emulsifier, and the concentrate is diluted with water to the desired concentration. To test for preventive activity, young plants are sprayed with the preparation of active compound at the stated rate of application. After the spray coating has dried on, the plants are inoculated with an aqueous spore suspension of Alternaria solani. The plants are then placed in an incubation cabinet at approximately 20° C. and a relative atmospheric humidity of 100%. The test is evaluated 3 days after the inoculation. 0% means an efficacy which corresponds to that of the untreated control while an efficacy of 100% means that no disease is observed.

[7] = tested on: Leptosphaeria nodorum; assay: in vivo preventive Leptosphaeria nodorum test (wheat); settings: Table C1, 8 days after inoculation
Description: as §1, with “suspension of Leptosphaeria nodorum. The plants” for “suspension of Pyrenophora teres. The plants”, “of approximately 25° C. and” for “of approximately 20° C. and”

[8] = Table D2, 7 days after inoculation, 0.5 ppm a.i.
[9] = Table D2, 7 days after inoculation, 1 ppm a.i.
[10] = Table B1, 7 days after inoculation, 40 ppm a.i.
[11] = Table G2, 21 days after inoculation, 40 ppm a.i.
[12] = Table D3, 7 days after inoculation, 2 ppm a.i.
[13] = Table B2, 7 days after inoculation, 10 ppm a.i.
[14] = Table B2, 7 days after inoculation, 40 ppm a.i.
[15] = Table G1, 21 days after inoculation, 20 ppm a.i.
[16] = Table A2, 3 days after inoculation, 2 ppm a.i.
[17] = Table A2, 3 days after inoculation, 4 ppm a.i.
[18] = Table D1, 7 days after inoculation, 0.1 ppm a.i.
[19] = Table D1, 7 days after inoculation, 0.2 ppm a.i.
[20] = Table A1, 3 days after inoculation, 1 ppm a.i.
[21] = Table D3, 7 days after inoculation, 10 ppm a.i.

With `Cn1cc(C(=O)Nc2cccc3c2[C@@H]2CC[C@H]3C2=C(Cl)Cl)c(C(F)F)n1` (racemic) [(B.6), benzovindiflupyr] the “Efficacy in % found” value ([1]; Table D2, 7 days after inoculation, 0.25 ppm a.i.) was 8%, the “Efficacy in % found” value [1, 8] was 8% and the “Efficacy in % found” value [1, 9] was 15%. For the same compound, the “Efficacy in % found” value ([2]; 40 ppm a.i.) was 86%, the “Efficacy in % found” value ([3]; 80 ppm a.i.) was 57% and the “Efficacy in % found” value [4, 10] was 11%. For the same compound, the “Efficacy in % found” value [5, 11] was 38% and the “Efficacy in % found” value ([6]; Table A2, 3 days after inoculation, 0.5 ppm a.i.) was 22%.
For `OC(Cc1ccccc1Cl)(Cn1nc[nH]c1=S)C1(Cl)CC1` (centres unmarked) [(A.3), prothioconazole], the “Efficacy in % found” value ([1]; Table D3, 7 days after inoculation, 1 ppm a.i.) was 0%, the “Efficacy in % found” value [1, 12] was 35% and the “Efficacy in % found” value [4, 13] was 22%. For the same compound, the “Efficacy in % found” value [4, 14] was 22%, the “Efficacy in % found” value [5, 15] was 0% and the “Efficacy in % found” value [6, 16] was 0%. For the same compound, the “Efficacy in % found” value [6, 17] was 24%.
For `CC(C)(C)C(O)(CCc1ccc(Cl)cc1)Cn1cncn1` (centres unmarked) [(A.4), tebuconazole], the “Efficacy in % found” value [1, 18] was 0%, the “Efficacy in % found” value [1, 19] was 30% and the “Efficacy in % found” value [6, 20] was 0%.
`Cn1cc(C(=O)Nc2ccc(F)cc2-c2ccc(Cl)c(Cl)c2)c(C(F)F)n1` [(B.1), bixafen] was tested, and the “Efficacy in % found” value ([1]; Table D1, 7 days after inoculation, 10 ppm a.i.) was 0%, the “Efficacy in % found” value [1, 21] was 0% and the “Efficacy in % found” value [4, 14] was 0%. For the same compound, the “Efficacy in % found” value ([7]; 80 ppm a.i.) was 0%, the “Efficacy in % found” value [5, 11] was 0% and the “Efficacy in % found” value [6, 20] was 40%.
With `O=C(NCCc1ncc(C(F)(F)F)cc1Cl)c1ccccc1C(F)(F)F` [(B.2), fluopyram] the “Efficacy in % found” value [4, 14] was 11% and the “Efficacy in % found” value [6, 16] was 30%.
In the case of `Cn1cc(C(=O)Nc2ccccc2-c2cc(F)c(F)c(F)c2)c(C(F)F)n1` [(B.3), fluxapyroxad], the “Efficacy in % found” value ([7]; 40 ppm a.i.) is reported as 14% and the “Efficacy in % found” value [5, 11] is reported as 13%.
For `CC(C)c1ccc(Cl)cc1CN(C(=O)c1c(C(F)F)nn(C)c1F)C1CC1` [(B.8), N-(5-chloro-2-isopropylbenzyl)-N-cyclopropyl-3-(difluoromethyl)-5-fluoro-1-methyl-1H-pyrazole-4-carboxamide], the “Efficacy in % found” value ([1]; Table D1, 7 days after inoculation, 20 ppm a.i.) was 0%, the “Efficacy in % found” value [1, 21] was 0% and the “Efficacy in % found” value ([7]; 20 ppm a.i.) was 0%. For the same compound, the “Efficacy in % found” value [5, 15] was 29% and the “Efficacy in % found” value [6, 20] was 45%.
With `CO/C=C(/C(=O)OC)c1ccccc1Oc1cc(Oc2ccccc2C#N)ncn1` [(C.1), azoxystrobin] the “Efficacy in % found” value [1, 8] was 20%, the “Efficacy in % found” value [1, 9] was 68% and the “Efficacy in % found” value ([1]; Table D3, 7 days after inoculation, 0.5 ppm a.i.) was 23%. The “Efficacy in % found” value ([2]; 10 ppm a.i.) was 71%, the “Efficacy in % found” value ([3]; 20 ppm a.i.) was 71% and the “Efficacy in % found” value ([5]; Table G2, 21 days after inoculation, 10 ppm a.i.) was 0%. For the same compound, the “Efficacy in % found” value ([6]; Table A2, 3 days after inoculation, 1 ppm a.i.) was 46%.
With `CO/C=C(/C(=O)OC)c1ccccc1COc1cccc(C(F)(F)F)n1` [(C.2), picoxystrobin] the “Efficacy in % found” value ([1]; Table D2, 7 days after inoculation, 2 ppm a.i.) was 30% and the “Efficacy in % found” value ([4]; Table B1, 7 days after inoculation, 20 ppm a.i.) was 44%.
`COC(=O)N(OC)c1ccccc1COc1ccn(-c2ccc(Cl)cc2)n1` [(C.3), pyraclostrobin] was tested, and the “Efficacy in % found” value ([7]; 40 ppm a.i.) was 57% and the “Efficacy in % found” value [5, 11] was 88%.
`CON=C(C(=O)OC)c1ccccc1CON=C(C)c1cccc(C(F)(F)F)c1` [(C.4), trifloxystrobin] was tested, and the “Efficacy in % found” value [1, 12] was 0%, the “Efficacy in % found” value [4, 13] was 11% and the “Efficacy in % found” value ([7]; 40 ppm a.i.) was 14%. For the same compound, the “Efficacy in % found” value ([5]; Table G2, 21 days after inoculation, 20 ppm a.i.) was 75%, the “Efficacy in % found” value [6, 20] was 30% and the “Efficacy in % found” value [6, 17] was 73%.
For `CCN(C)/C=N/c1cc(C)c(Oc2ccccc2)cc1C` [(I-d), N′-(2,5-dimethyl-4-phenoxyphenyl)-N-ethyl-N-methylimidoformamide], the “Efficacy in % found” value ([1]; Table D1, 7 days after inoculation, 0.05 ppm a.i.) was 0%, the “Efficacy in % found” value [1, 18] was 23% and the “Efficacy in % found” value [1, 19] was 86%. For the same compound, the “Efficacy in % found” value ([1]; Table D2, 7 days after inoculation, 0.05 ppm a.i.) was 0%, the “Efficacy in % found” value ([1]; Table D2, 7 days after inoculation, 0.1 ppm a.i.) was 0% and the “Efficacy in % found” value ([1]; Table D2, 7 days after inoculation, 0.2 ppm a.i.) was 23%. For the same compound, the “Efficacy in % found” value ([1]; Table D3, 7 days after inoculation, 0.05 ppm a.i.) was 0%, the “Efficacy in % found” value ([1]; Table D3, 7 days after inoculation, 0.1 ppm a.i.) was 0% and the “Efficacy in % found” value ([2]; 40 ppm a.i.) was 57%. For the same compound, the “Efficacy in % found” value ([3]; 80 ppm a.i.) was 29%, the “Efficacy in % found” value [4, 10] was 33% and the “Efficacy in % found” value [4, 13] was 0%. The “Efficacy in % found” value ([4]; Table B2, 7 days after inoculation, 20 ppm a.i.) was 0%, the “Efficacy in % found” value [4, 14] was 0% and the “Efficacy in % found” value ([4]; Table B2, 7 days after inoculation, 80 ppm a.i.) was 22%. The “Efficacy in % found” value ([7]; 80 ppm a.i.) was 29%, the “Efficacy in % found” value [5, 15] was 14% and the “Efficacy in % found” value ([5]; Table G1, 21 days after inoculation, 40 ppm a.i.) was 14%. The “Efficacy in % found” value [5, 11] was 0%, the “Efficacy in % found” value ([5]; Table G2, 21 days after inoculation, 80 ppm a.i.) was 0% and the “Efficacy in % found” value ([6]; Table A1, 3 days after inoculation, 0.5 ppm a.i.) was 8%. The “Efficacy in % found” value [6, 20] was 15%, the “Efficacy in % found” value ([6]; Table A2, 3 days after inoculation, 0.1 ppm a.i.) was 0% and the “Efficacy in % found” value ([6]; Table A2, 3 days after inoculation, 0.2 ppm a.i.) was 0%.
